# Data reported in patent US6271266A (Takeda Chemical Industries, Ltd., priority 1996, dated 2001).
# What was measured:
# rat hippocampal neurons [1] = experiment: LDH leakage from cultured rat hippocampal neurons exposed to Aβ1-40; format: cell-based
# Protocol: (§1) The cultured rat hippocampal neurons were prepared by the following procedure.
# From the 18-day viviparous SD rat brain, the hippocampus was isolated on ice and treated with 0.25% trypsin and 0.1 mg/ml deoxyribonuclease I in Hank's solution at 37° C. for 10 minutes. The enzyme-treated cells were collected with a filter and suspended in Eagle's MEM containing 50 U/ml penicillin, 50 μg/ml streptomycin, 10% fetal calf serum, and 1% B27 Supplement (GIBCO). The suspension was diluted and seeded on a 48-well plate (COSTAR) precoated with poly-L-lysine, 100,000 cells/300 μl/well. Culture was carried out in the presence of 5% carbon dioxide gas at 37° C. […] On day 7 of culture, the medium was further replaced with MEM-N2 containing Aβ1-40 (Bachem) and the test drug, and the efficacy of the drug against the toxicity of Aβ1-40 was evaluated.
# (§2) The lactate dehydrogenase (LDH) activity released extracellularly from the injured cells into the medium was assayed over 3-5 days after treatment and the toxicity was evaluated using the assayed activity as an indicator. In addition, on day 4 after addition of the drug, the cells were fixed with 4% paraformaldehyde, stained with anti-MAP2 antibody (Amersham) and randomly photographed under the microscope, and the number of neurons per visual field was counted.
# rat hippocampal neurons [2] = experiment: Number of viable neurons (anti-MAP2 staining) after Aβ1-40; format: cell-based; details: Aβ1-40 10 μM, day 4 after addition, FIG. 3
# Protocol: as §1
# From the 18-day viviparous SD rat brain, the hippocampus was isolated on ice and treated with 0.25% trypsin and 0.1 mg/ml deoxyribonuclease I in Hank's solution at 37° C. for 10 minutes. The enzyme-treated cells were collected with a filter and suspended in Eagle's MEM containing 50 U/ml penicillin, 50 μg/ml streptomycin, 10% fetal calf serum, and 1% B27 Supplement (GIBCO). The suspension was diluted and seeded on a 48-well plate (COSTAR) precoated with poly-L-lysine, 100,000 cells/300 μl/well. Culture was carried out in the presence of 5% carbon dioxide gas at 37° C. On day 4 of culture, the medium was replaced with Eagle's MEM (MEM-N2) containing 50 U/ml penicillin, 50 μg/ml streptomycin, 10 mM HEPES-Na (pH 7.3) and N2 Supplement. On day 7 of culture, the medium was further replaced with MEM-N2 containing Aβ1-40 (Bachem) and the test drug, and the efficacy of the drug against the toxicity of Aβ1-40 was evaluated.
# as §2
# [3] = test system: patients with Alzheimer's disease; details: 90 mg or 120 mg 3 times a day (270 or 360 mg per day), 6 months; cited from earlier work
# [4] = test system: Alzheimer type senile dementia; details: cited from earlier work
# [5] = test system: rat retinal neuron-neuroblastoma hybrid N18-RE-105 cells; details: cited from earlier work
# cultured nerve cells = details: cited from earlier work
molecule,measurement,setting,value
"COC1=C(OC)C(=O)C(CCCCCCCCCCO)=C(C)C1=O [idebenone, 6-(10-hydroxydecyl)-2,3-dimethoxy-5-methyl-1,4-benzoquinone]",release of LDH,"rat hippocampal neurons [1]; idebenone 100 nM, Aβ1-40 10 μM, 3-5 days following addition, FIG. 2",suppressed the release of LDH
same,neuronal death,rat hippocampal neurons [2]; idebenone 100 nM,inhibited neuronal death significantly
same,number of viable cells,"rat hippocampal neurons [2]; idebenone 100 nM, anti-MAP2 antibody",approximately equal to the number of viable cells in the control group
same,GOT time course,[3],the changes were small with substantially no difference from the control values
same,GPT time course,[3],the changes were small with substantially no difference from the control values
same,efficacy in Alzheimer type senile dementia,[4]; 90 mg daily to adult patients,efficacy
same,clinical effect in Alzheimer type senile dementia,[4]; high doses (270 mg-360 mg day per adult),clinically effective
same,glutamate-induced neuronal death,[5],suppresses glutamate-induced neuronal death
same,neuroprotection / reactive oxygen species scavenging,[5],exerts the neuroprotection by the reactive oxygen species scavenging activity
Aβ1-40: β-amyloid protein 1-40 (Bachem),leakage of LDH activity into the medium (toxicity),"rat hippocampal neurons [1]; 3-5 days after addition of Aβ1-40, FIG. 1",dose-dependent toxicity
same,number of neurons,rat hippocampal neurons [2],decline in the number of neurons
β-amyloid,neuronal toxicity,cultured nerve cells,shows neuronal toxicity
